From patent US20120040976A1, “SMALL MOLECULE IMMUNOMODULATORS FOR ALZHEIMER'S DISEASE” (HUMAN BIOMOLECULAR RESEARCH INSTITUTE, priority 2008, published 2012)
Converted amounts (≈) assume the structure as drawn.

Assays:
[1] = test system: MGAT3; test: MGAT3 transcription ratio, AD patient / control PBMCs (qPCR); assay type: cell-based, human; conditions: Aβ stimulation
Experimental: (§1) qPCR reactions of cultured monocyte cDNAs. One μL total cellular cDNA per reaction is used in triplicate reactions for each test gene, and for each culture treatment. SYBR-Green reactions were run on a Continuous Fluorescence real-time thermocycler and analyzed. Cycle threshold (Ct) values are recorded for each replicate reaction, and are then averaged and normalized against mean Ct values from one or more control genes. Fold-expression differences relative to untreated cells are determined using the 2^−ΔΔCt method as previously described. Data from the curcumin concentration range are plotted in order to determine EC50 values (concentrations producing one-half maximal stimulant activity), which are used for comparisons of potency between different compounds. Data are also evaluated for each gene with regard to sensitivity, maximally effective concentration of curcuminoid, response to Aβ, and overall magnitude of fold-expression changes.
(§2) MGAT3 and/or TLR transcription were tested by qPCR in human monocyte cells treated with curcuminoids and compared the results to those treated with vehicle (Table 7). As discussed above, activation or up-regulation of macrophage MGAT3 or TLR's results in many functional outcomes, including the enhancement of […] and removal of Aβ, increased apoptosis, secretion of inflammatory cytokines, and other anti-AD antimicrobial activities. […] Thus, the ratio of MGAT3 or TLR transcription upon Aβ stimulation of human monocytes versus vehicle treatment provides an indicator and sensitive method to test the in vitro efficacy of drug candidates. […] The relative biological activity of the curcumin analogs in AD patient and control cells was ascertained in the in vitro Aβ assay described above (see Example 2).

[2] = test system: TLR 4; test: TLR 4 transcription ratio, AD patient / control PBMCs (qPCR); assay type: cell-based, human; conditions: Aβ stimulation
Experimental: as §1, §2

[3] = test system: TLR 3; test: TLR 3 transcription ratio, AD patient / control PBMCs (qPCR); assay type: cell-based, human; conditions: Aβ stimulation
Experimental: as §1, §2

[4] = Chemical stability (H2O, pH 7.4); assay type: physicochemical
[5] = Average solubility; assay type: physicochemical
[6] = Metabolic stability in human liver microsomes; assay type: in vitro ADME; conditions: human, read-out: Half life, t1/2 HLM
[7] = test system: TLR 2; test: TLR 2 transcription ratio, AD patient / control PBMCs (qPCR); assay type: cell-based, human; conditions: Aβ stimulation
Experimental: as §1, §2

[8] = Metabolic stability in human S9 fraction; assay type: in vitro ADME; conditions: read-out: Half life, t1/2 S9
[9] = Average permeability; assay type: in vitro ADME; conditions: not told
[10] = Anti-oxidant activity
[11] = test system: TLR3; test: TLR3 gene expression by qPCR in U-937 human monocytic cells treated with curcumins plus Aβ; assay type: cell-based; conditions: human monocytic cells (U-937), curcumin plus Aβ
Experimental: (§3) Cell culture conditions for monocytic cell lines. Human and mouse monocyte cell lines are grown in RPMI-1640 medium with 10% fetal bovine serum (FBS), plus glutamine and pen/strep. For treatment with compounds (curcuminoids+/−Aβ), replicate sets of 0.5-1.0 mL cultures containing 1-2×10^6 cells are set up in the wells of 48-well tissue culture plates. Both replicate sets have at least one control well receiving no added curcuminoid to provide baseline expression controls for untreated, and Aβ-only treated cells. Remaining wells receive curcuminoid in a range of 10-fold serial dilutions in DMSO, typically from […] Cultures are incubated for 20-24 hours (“overnight”) at 37° C. in atmosphere with 5% CO2. After one overnight, to one of replicate sets of cultures is added Aβ (1-42) peptide to a final concentration of 5 μg/mL.
(§4) RNA isolation and cDNA synthesis. After the first overnight incubation in the presence of curcuminoid, cells from one replicate set of wells are collected by centifugation. RNAs are extracted from pelleted cells using miniprep column kits following manufacturer's protocol for animal cells. […] of total cellular RNA from each well is quantitated using a Nanodrop spectrophotometer, and first-strand total cDNA is prepared from 0.3-1.0 μg RNA by random-hexamer priming. Following the second 20 hr. incubation in the presence of Aβ, RNA extractions and cDNA synthesis are similarly performed.
(§5) Assay development. Gene-specific mRNA levels are determined using a real-time thermocycler, and by normalizing to expression of one or more control genes. Assays for quantifying mRNA levels are based on gene sequences reported in NCBI Genbank. PCR oligonucleotide primers are selected spanning introns to minimize the opportunity for amplication from any contaminating genomic DNA in the RNA preps. Oligonucleotides are typically tested and used at a concentration of 200 nM in qPCR reactions containing SYBR dye. Control reactions include template from cDNA synthesis reactions either + or − reverse transcriptase (RT), as well as no-template controls (ntc). All reactions are performed in triplicate. Reactions are typically run with 40 cycles of 95° C. (10 sec) and 58° C. (30 sec). Melt curves based on incremental 0.5° C. increases are determined for new assays to test for uniformity of amplified products. Reaction conditions are modified as needed depending on initial test results. ‘Working’ assays are selected based on clear RNA-dependent amplification and absence of product in ‘ntc’ reactions. The following assay primers are used: […]
as §1
(§6) Data showing in vitro up-regulation of genes associated with Aβ phagocytosis in response to curcumins. Natural curcumins and synthetic analogs were tested in U-937 human monocyte cells in vitro for their ability to modulate expression of the genes MGAT3 and TLRs −2, −3, and −4. […]

[12] = test system: TLR4; test: TLR4 gene expression by qPCR in U-937 human monocytic cells treated with curcumins plus Aβ; assay type: cell-based; conditions: human monocytic cells (U-937), curcumin plus Aβ
Experimental: as §3, §4, §5
as §1, with “Data from the curcumin concentration range are plotted in order to determine EC50 values (concentrations producing one-half maximal stimulant activity), which are used for comparisons of potency between different compounds.” left out, “changes. […]” for “changes.”

[13] = test system: VDR; test: VDR gene expression by qPCR in U-937 human monocytic cells treated with curcumins plus Aβ; assay type: cell-based; conditions: human monocytic cells (U-937), curcumin plus Aβ
Experimental: as §3, §4, §5, §1, §6

[14] = test system: TLR2; test: TLR2 gene expression by qPCR in U-937 human monocytic cells treated with curcumins plus Aβ; assay type: cell-based; conditions: human monocytic cells (U-937), curcumin plus Aβ
Experimental: as §3, §4, §5
as §1, with “Data from the curcumin concentration range are plotted in order to determine EC50 values (concentrations producing one-half maximal stimulant activity), which are used for comparisons of potency between different compounds.” left out, “changes. […]” for “changes.”

[15] = test system: MGAT3; test: MGAT3 gene expression by qPCR in U-937 human monocytic cells treated with curcumins plus Aβ; assay type: cell-based; conditions: human monocytic cells (U-937), curcumin plus Aβ
Experimental: as §3, §4
as §5, with “All reactions are performed in triplicate. Reactions are typically run with 40 cycles of 95° C. (10 sec) and 58° C. (30 sec).” left out, “products.” for “products. Reaction conditions are modified as needed depending on initial test results. ‘Working’ assays are selected based on clear RNA-dependent amplification and absence of product in ‘ntc’ reactions. The following assay primers are used:”
qPCR reactions of cultured monocyte cDNAs. […] SYBR-Green reactions were run on a Continuous Fluorescence real-time thermocycler and analyzed. Cycle threshold (Ct) values are recorded for each replicate reaction, and are then averaged and normalized against mean Ct values from one or more control genes. Fold-expression differences relative to untreated cells are determined using the 2^−ΔΔCt method as previously described. […] Data are also evaluated for each gene with regard to sensitivity, maximally effective concentration of curcuminoid, response to Aβ, and overall magnitude of fold-expression changes. […]

[16] = water (aqueous solution), pH 7.4, value given in h, read-out: Chemical stability t1/2 pH 7.4 (converted)
[17] = water, H2O, value given in h, read-out: Chemical stability t1/2 H2O (converted)
[18] = water, H2O, read-out: Chemical stability t1/2 H2O (converted)

Structure (SMILES) | Relative ratio of MGAT3 transcription in AD patient / control PBMC's [1] | Relative ratio of TLR 4 transcription in AD patient / control PBMC's [2] | Relative ratio of TLR 3 transcription in AD patient / control PBMC's [3] | half-life [4, 16] | half-life [4, 17] | solubility [5] | half-life [6] | Relative ratio of TLR 2 transcription in AD patient / control PBMC's [7] | half-life [8] | Papp [9] | Chemical stability H2O (stable/unstable) ([4]; H2O) | Chemical stability pH 7.4 (stable/unstable) ([4]; pH 7.4) | IC50 [10] | half-life [4, 18] | Relative gene expression TLR3, increased expression relative to control cells [11] | Relative gene expression TLR4, increased expression relative to control cells [12] | Relative gene expression VDR, increased expression relative to control cells [13] | Solubility compared with parent compounds (in words) [5] | Relative gene expression TLR2, increased expression relative to control cells [14] | Relative gene expression MGAT3, increased expression relative to control cells [15]
COc1cc(N(C)C)ccc1/C=C/C(=O)/C=C(O)/C=C/c1ccc(N(C)C)cc1OC [Compound 3, 1,7-Bis(4-dimethylamino-2-methoxyphenyl)-5-hydroxy-hepta-1,4,6-trien-3-one] | ++ ((++) indicates a ratio of 1.5-2.0) | TLR 4 ++ ((++) indicates a ratio of 1.5-2.0) | TLR 3 ++ ((++) indicates a ratio of 1.5-2.0) | 1530 min | 1190 min | 0.00073 mg/mL (≈ 1.73 µM) | 63.6 min | TLR 2 ++ ((++) indicates a ratio of 1.5-2.0) | 39.5 min |  |  |  |  |  |  |  |  |  |  | 
COc1cc(N(C)C)ccc1/C=C/C(O)=C1\CCC/C(=C\c2ccc(N(C)C)cc2OC)C1=O [Compound 7, 2-(4-(Dimethylamino-2-methoxybenzylidene)-3-(4-(dimethylamino)-2-methoxyphenyl)-1-hydroxyallylidene)cyclohexanone] | +++ ((+++ to ++++) indicates a ratio of 2.0 and above) |  |  |  |  |  | 127 min |  | 184 min | 48 nm/s | stable^a (stability half-lives greater than 5 hours) | stable (stability half-lives greater than 5 hours) |  |  |  |  |  |  |  | 
COc1ccc(F)cc1/C=C/C(=O)/C=C(O)/C=C/c1cc(F)ccc1OC [Compound 26, 1,7-bis-(5-Fluoro-2-methoxyphenyl)-5-hydroxy-hepta-1,4,6-trien-3-one] |  | TLR 4 + ((+) indicates a ratio of 1.0-1.5) | TLR 3 ++ ((++) indicates a ratio of 1.5-2.0) |  |  | 0.00044 mg/mL (≈ 1.18 µM) | 59.2 min | TLR 2 + ((+) indicates a ratio of 1.0-1.5) | 8.2 min | 1290 nm/s | stable (stability half-lives greater than 5 hours) | stable (stability half-lives greater than 5 hours) | > 250 µM |  |  |  |  |  |  | 
CC(C)(C)c1ccc(/C=C/C(=O)/C=C(O)/C=C/c2ccc(C(C)(C)C)cc2)cc1 [Compound 30, 1,7-bis(4-tert-Butylphenyl)-5-hydroxyhepta-1,4,6-trien-3-one] | + ((+) indicates a ratio of 1.0-1.5) | TLR 4 + ((+) indicates a ratio of 1.0-1.5) | TLR 3 ++ ((++) indicates a ratio of 1.5-2.0) |  |  |  |  | TLR 2 + ((+) indicates a ratio of 1.0-1.5) |  |  |  |  | > 250 µM |  |  |  |  |  |  | 
NCCCCC(N)C(=O)Oc1ccc(/C=C/C(=O)/C=C(O)/C=C/c2ccc(OC(=O)C(N)CCCCN)cc2)cc1 (stereo not drawn) [Compound 34, 4,4′-(3,5-Dioxohepta-1,6-diene-1,7-diyl)bis(4,1-phenylene) bis(2,6-diaminohexanoate)] | ++ ((++) indicates a ratio of 1.5-2.0) | TLR 4 + ((+) indicates a ratio of 1.0-1.5) | TLR 3 ++ ((++) indicates a ratio of 1.5-2.0) |  |  |  | 19.9 min | TLR 2 +++ ((+++ to ++++) indicates a ratio of 2.0 and above) | 4.5 min |  |  | unstable^b (stability half-lives less than 5 minutes) | > 250 µM | 10.2 min |  |  |  |  |  | 
COc1cc(/C=C/C(=O)/C=C(O)/C=C/c2ccc(OC(=O)C(N)C(C)C)c(OC)c2)ccc1OC(=O)C(N)C(C)C (stereo not drawn) [Compound 35, 4,4′-(3,5-Dioxohepta-1,6-diene-1,7-diyl)bis(2-methoxy-4,1-phenylene)bis(2-amino-3-methylbutanoate)] | ++ ((++) indicates a ratio of 1.5-2.0) | TLR 4 + ((+) indicates a ratio of 1.0-1.5) |  | 138 min | 1090 min | 0.0228 mg/mL (≈ 40.2 µM) | 55.8 min | TLR 2 +++ ((+++ to ++++) indicates a ratio of 2.0 and above) | 9 min | 5720 nm/s |  |  |  |  |  |  |  |  |  | 
COc1cc(/C=C/C(=O)/C=C(O)/C=C/c2ccc(OC(=O)C(N)CCCCN)c(OC)c2)ccc1OC(=O)C(N)CCCCN (stereo not drawn) [Compound 36, 4,4′-(3,5-dioxohepta-1,6-diene-1,7-diyl)bis(2-methoxy-4,1-phenylene)bis(2,6-diaminohexanoate)] |  |  |  |  |  | 0.0306 mg/mL (≈ 49 µM) | 19.9 min |  | 4.5 min | 7180 nm/s |  | unstable (stability half-lives less than 5 minutes) |  | 10.2 min | + ((+) <20-fold) | + ((+) <20-fold) | + ((+) <20-fold) | significantly improved solubility | + ((+) <20-fold) | + ((+) <20-fold)
